Laboratory results as given in paper PMC8126654, “Novel Pan-Pim Kinase Inhibitors With Imidazopyridazine and Thiazolidinedione Structure Exert Potent Antitumor Activities” (Frontiers in Pharmacology, 2021).

Columns and labels:
[1] = target: T1, Pim-1 (Homo sapiens, UniProt P11309); assay: Binding detection based on SPR platform (BIACORE T200); conditions: 6.5, 13, 25, or 50 µM
T1 construct: purchased Life Technologies; Thermo Fisher Scientific Inc
Method: The interactions between test compounds and Pim-1 were detected by surface plasmon resonance platform BIACORE T200 (GE Healthcare Life Sciences, Buckinghamshire, England). Pim-1 was diluted to 20 μg/ml in 10 mM acetate buffer (pH 5.0), and then immobilized as a ligand in the N-hydroxysuccinimide/ethyl 3-(3-dimethylaminopropyl) carbodiimide-pre-activated CM5 sensor chip, following blocking by ethanolamine. Test compounds were diluted at 6.5, 13, 25, or 50 µM in a vehicle of 5% DMSO (v/v) in phosphate buffered saline (PBS). The dilutions were injected as analyte flow liquid phase with PBS containing 5% DMSO (v/v) as running buffer at a constant flow rate of 30 μL/min. A 2-min association time was set. The data were collected by Biacore Control Software. Kinetics and affinity parameters were evaluated with the Langmuir model (1:1) using BIA evaluation software.

[2] = tested on: PC-3; assay: Cell cycle analysis, PC-3; type: cell-based; conditions: 24 h (DMSO 41%)
From the text: After treatment, cells were fixed and stained with propidium iodide using the Cell Cycle Phase Determination kit (Cayman Chemical, Ann Arbor, MI, United States) and analyzed by Guava EasyCyteTM Plus System (Merck Millipore).

[3] = tested on: PC-3; assay: Immunoblot analysis of phosphorylation of Pim kinase substrates, PC-3; type: cell-based; conditions: PC-3, 4 h
Method: Cells were plated overnight and then treated with test compounds for 4 hours. Then, the cells were lyzed in solubilization buffer [10 mM Tris-HCl (pH7.4), 0.1% (w/v) NP-40, 0.1% (w/v) sodium deoxycholate, 0.1% (w/v) SDS, 0.15 M NaCl, 1 mM EDTA, 10 µM aprotinin] with phosphatase inhibitor cocktails (Nakarai Tesque, Kyoto, Japan), and subjected to SDS-PAGE using 15% (w/v) gels under reducing conditions. The separated proteins were electrotransferred to Immobilon transfer membranes (Merck Millipore, Darmstadt, Germany). Then, each membrane was reacted with primary antibodies, which were subsequently complexed with appropriate horseradish peroxidase-conjugated secondary antibodies. Signals were detected using the ECL Western Blotting Detection System (GE Healthcare Life Sciences) and protein expression was quantified with a LAS-3000 Luminescent Image Analyzer (GE Healthcare Life Sciences). The protein bands were quantified using ImageQuant TL software (GE Healthcare Life Sciences).

[4] = target: T2, FLT3 (Homo sapiens, UniProt P36888); assay: FLT3 kinase activity assay (FRET-based Z'-LYTE); type: biochemical; conditions: ATP 500 µM; read-out: IC50 against FLT3 kinase
T2 construct: purchased Life Technologies; Thermo Fisher Scientific Inc
T2 sequence (P36888 27-993): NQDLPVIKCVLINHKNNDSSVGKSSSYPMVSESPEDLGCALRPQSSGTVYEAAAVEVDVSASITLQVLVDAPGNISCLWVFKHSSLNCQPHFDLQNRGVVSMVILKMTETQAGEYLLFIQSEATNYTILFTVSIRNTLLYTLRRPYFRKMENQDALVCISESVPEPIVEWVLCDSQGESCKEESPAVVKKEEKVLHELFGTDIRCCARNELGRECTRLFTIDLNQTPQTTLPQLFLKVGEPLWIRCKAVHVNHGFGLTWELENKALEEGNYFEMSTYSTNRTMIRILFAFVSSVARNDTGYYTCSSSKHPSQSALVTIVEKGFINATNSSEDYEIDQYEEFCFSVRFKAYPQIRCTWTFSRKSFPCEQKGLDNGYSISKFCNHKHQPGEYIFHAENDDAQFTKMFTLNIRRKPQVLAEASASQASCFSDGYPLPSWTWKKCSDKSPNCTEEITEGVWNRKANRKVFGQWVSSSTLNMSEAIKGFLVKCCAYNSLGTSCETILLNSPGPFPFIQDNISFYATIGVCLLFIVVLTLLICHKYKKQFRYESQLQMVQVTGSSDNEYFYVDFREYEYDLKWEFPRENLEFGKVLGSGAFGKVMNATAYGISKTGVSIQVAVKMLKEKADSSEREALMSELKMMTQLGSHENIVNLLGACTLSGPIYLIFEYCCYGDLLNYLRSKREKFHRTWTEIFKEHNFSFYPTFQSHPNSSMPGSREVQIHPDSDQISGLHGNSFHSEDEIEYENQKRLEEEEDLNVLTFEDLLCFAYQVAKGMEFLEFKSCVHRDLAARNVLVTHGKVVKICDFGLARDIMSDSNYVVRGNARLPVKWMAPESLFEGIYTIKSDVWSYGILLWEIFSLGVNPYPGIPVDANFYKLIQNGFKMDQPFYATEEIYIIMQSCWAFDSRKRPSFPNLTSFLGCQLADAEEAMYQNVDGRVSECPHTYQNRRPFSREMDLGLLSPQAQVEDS
Method: The inhibition ratios of test compounds for Pim-1, 2 (Life Technologies; Thermo Fisher Scientific Inc., MA, United States), 3 (Merck KgaA), and FLT3 (Life Technologies; Thermo Fisher Scientific Inc., MA, United States) were determined using a modified FRET-based Z′-LYTE kinase assay kit (Invitrogen; Thermo Fisher Scientific Inc.). The Ser/Thr 7 peptide and Tyr-2 peptide were used as substrates for Pim kinases and FLT3, respectively. The reactions were carried out in a 384-well plate with a 10 µL reaction volume per well containing 1 µM substrates in 50 mM HEPES buffer with pH 7.5, 0.01% BRIJ-35, 10 mM MgCl2, 1 mM EGTA, and an appropriate amount of kinases (Pim-1: 0.03 μg/ml, Pim-2: 0.2 μg/ml, Pim-3: 0.2 μg/ml, FLT3: 0.1 μg/ml) with test compounds. The final reaction concentrations of ATP were 400, 5, 100, and 500 µM for Pim-1, 2, 3, and FLT3 respectively. After 1 h incubation, reactions were developed and terminated, and fluorescence ratios were calculated following the manufacturer’s protocol.

T1 sequence (P11309 whole entry): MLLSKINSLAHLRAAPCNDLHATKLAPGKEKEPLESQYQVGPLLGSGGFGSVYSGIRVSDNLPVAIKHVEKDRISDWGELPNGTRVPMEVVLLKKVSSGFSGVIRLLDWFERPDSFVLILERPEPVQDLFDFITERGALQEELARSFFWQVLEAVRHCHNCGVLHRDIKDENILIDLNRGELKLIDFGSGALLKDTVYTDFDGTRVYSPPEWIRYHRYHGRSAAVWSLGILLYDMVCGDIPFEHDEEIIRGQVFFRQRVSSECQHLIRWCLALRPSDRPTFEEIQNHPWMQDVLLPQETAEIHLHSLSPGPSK

CN1CCN(c2ccc(-c3cnc4ccc(/C=C5\SC(=O)NC5=O)nn34)cc2)CC1 [YPC-21440, (Z)-5-([3-{4-(4-methylpiperazin-1-yl)phenyl}imidazo[1,2-b]pyridazin-6-yl]methylene)thiazolidine-2,4-dione]
Binding to Pim-1 by SPR (Biacore) [1]: bound Pim-1 in a concentration-dependent manner
Percentage of cells in G1 phase ([2]; PC-3, 0.3 µM): 55%
Percentage of cells in G1 phase ([2]; PC-3, 1 µM): 65%
Phosphorylation levels of Bad, 4EBP, and p21 [3]: decreased
IC50 [4]: 390 nM
